Measurements published in patent US11660319B2, “Compositions comprising bacterial strains” (priority 2017, dated 2023).

Tests used:
[1] = system: co-culture of human glioblastoma astrocytoma cells and neuroblastoma cells; assay: α-synuclein-induced IL-6 secretion in co-culture; assay type: cell-based; settings: 25 μg/ml α-synuclein (Wt, A53T, E46K), 10% bacteria supernatant, 48 hrs
Method: SHSY5Y cells were plated on 12 well plates at a density of 50,000 cells/well. The cells were grown in 50% MEM and 50% Nutrient Mixture F-12 Ham media supplemented with 2 mM L-Glutamine, 10% heat inactivated FBS, 100 U/ml penicillin, 100 μg/ml streptomycin. Cells on growth medium were plated on 96-well plate at 11,000 cells/well and placed in the incubator. After 2 days, media were replaced with differentiation medium (growth medium containing 1% FBS) and 10 μM retinoic acid. Differentiation medium was replaced every other day and cells were used after 7 days of differentiation. U373 were plated on 12 transwell plates (0.4 μm polyester membrane, Costar) at a density of 50,000 cells/well for 72 hrs. Cells were co-cultured together for 24 hrs before treatment in differentiation medium (growth medium containing 1% FBS without retinoic acid).
Thereafter cells were treated with 25 μg/ml α-synuclein (Wt, A53T, E46K) in the presence or absence of 10% bacteria supernatant for 48 hrs. Cell free Supernatants were collected, spun-down at 10000 g for 3 min at 4° C., aliquoted and stored at −80° C. Human IL-6 and IL-8 were measured as described above.

[2] = ABTS antioxidant capacity assay of bacterial cell lysate; settings: compared to Trolox
Method: Bacterial cells (10^6 or greater) were collected and centrifuged. They were resuspended in assay buffer (using three times the pellet volume). The suspension was sonicated on ice for 5 minutes and then spun down at 12,000×g for 10 minutes. The supernatant was removed and measured using the ABTS assay kit produced by Sigma Aldrich (code CS0790), in accordance with manufacturer's instructions.

BALBc mice = assay: Monoamine analysis in brainstem of mice fed with bacteria (HPLC); assay type: in vivo, mouse; settings: 1×10^9 CFU oral gavage 6 days
Method: Animals were allowed to habituate to their holding room for one week after arrival into the animal unit. They receive oral gavage (200 μL dose) of live biotherapeutics at a dose of 1×10^9 CFU for 6 consecutive days between 15:00 and 17:00. On day 7, the animals are decapitated, and tissues are harvested for experimentation.
Neurotransmitter concentration was analysed by HPLC on samples from the brainstem. Briefly, brainstem tissue was sonicated in 500 μl of chilled mobile phase spiked with 4 ng/40 μl of N-Methyl 5-HT (Sigma Chemical Co., UK) as internal standard. The mobile phase contained 0.1 M citric acid, 5.6 mM octane-1-sulphonic acid (Sigma), 0.1 M sodium dihydrogen phosphate, 0.01 mM EDTA (Alkem/Reagecon, Cork) and 9% (v/v) methanol (Alkem/Reagecon) and was adjusted to pH 2.8 using 4 N sodium hydroxide (Alkem/Reagecon). Homogenates were then centrifuged for 15 min at 22,000×g at 4° C. and 40 μl of the supernatant injected onto the HPLC system which consisted of a SCL 10-Avp system controller, LECD 6A electrochemical detector (Shimadzu), a LC-10AS pump, a CTO-10A oven, a SIL-10A autoinjector (with sample cooler maintained at 40 C) and an online Gastorr Degasser (ISS, UK). A reverse-phase column (Kinetex 2.6 u C18 100×4.6 mm, Phenomenex) maintained at 30° C. was employed in the separation (Flow rate 0.9 ml/min). The glassy carbon working electrode combined with an Ag/AgCl reference electrode (Shimdazu) operated a +0.8 V and the chromatograms generated were analyzed using Class-VP 5 software (Shimadzu). The neurotransmitters were identified by their characteristic retention times as determined by standard injections, which run at regular intervals during the sample analysis. The ratios of peak heights of analyte versus internal standard were measured and compared with standard injection. Results were expressed as ng of neurotransmitter per g fresh weight of tissue.

HDAC1 = target: T1, HDAC1 (Homo sapiens, UniProt Q13547); assay: Specific HDAC activity analysis (fluorogenic assay kit, BPS Bioscience); assay type: biochemical; settings: cell free supernatant diluted 1 in 10
T1 construct: purchased BPS Bioscience, CA
Method: (§1) Specific HDAC inhibition activity was analysed for HDAC1, 2, 3, 4, 5, 6, 9 using fluorogenic assay kits for each type of HDAC (BPS Bioscience, CA). Assays were conducted according to manufacturer's instructions and each sample were performed in replicates. Cell free supernatants were diluted 1 in 10 and exposed to specific HDAC proteins provided in the kit to maintain consistency between methods.

HDAC3 = target: T2, HDAC3 (Homo sapiens, UniProt O15379); assay: as above; assay type: biochemical; settings: cell free supernatant diluted 1 in 10
T2 construct: purchased BPS Bioscience, CA
Method: as §1

HDAC2 = target: T3, HDAC2 (Homo sapiens, UniProt Q92769); assay: as above; assay type: biochemical; settings: cell free supernatant diluted 1 in 10
T3 construct: purchased BPS Bioscience, CA
Method: as §1

[3] = system: HT29-mtx epithelial, mucin-producing cell monolayers; assay: mRNA expression of tight junction proteins in HT29-mtx (qRT-PCR); assay type: cell-based; settings: 2 h incubation
Method: Total RNA was extracted using the RNeasy mini kit (Qiagen, Manchester, JUK) according to the manufacturer's instructions, and the RNA concentration determined by absorbance at 260/280 nm using a spectrophotometer (nano-Drop ND-1000; Thermo Scientific, Wilmington, Del.). For mRNA expression analysis, cDNA was prepared from total RNA using the High-Capacity cDNA reverse transcription kit (Applied Biosystems, UK) according to the manufacturer's instructions. The reverse transcription reactions were performed in a Thermo cycler (Biometra, Germany) at 25° C. for 10 min, 37° C. for 120 min, and 85° C. for 5 min, hold on at 4° C. Resulting cDNA was amplified in duplicates by the SYBR-Green PCR assay, and products were detected on QuantStudio 6 flex real-time PCR machine (Applied Biosystems, UK) using a standardised profile (initial denaturation of 95° C. for 10 minutes, followed by 40 cycles of 15 seconds of denaturation at 95° C. and 60 seconds of annealing/extension at 60/65° C., depending on the primers. A dissociation stage was added after the 40 cycles to generate a melting curve. Analysis was performed using the Applied Biosystems QuantStudio Real-Time PCR Software v1.2. The primer sequences for Actin, Villin, Occludin TJP1 and TJP2 are provided in the sequence listing.

[4] = system: U373 astroglioblastoma cells; assay: ROS generated by TBHP (DCFDA fluorescence); assay type: cell-based, human; settings: 10% bacteria supernatant
class II HDACs = assay: Specific HDAC activity analysis (fluorogenic assay kit, BPS Bioscience); assay type: biochemical; settings: data not shown
Method: as §1
The specific HDAC inhibition profile of the test bacteria strain was investigated. Specific HDAC inhibition assays (BPS Bioscience, CA) were carried out for Class I and Class II HDACs. The ability of the bacterial strain to inhibit HDAC enzymes was compared to butyrate, hexanoic and valeric acid (FIGS. 14 and 15).

[5] = system: differentiated neuroblasoma cells; assay: BDNF secretion in SHSY-5Y cells; assay type: cell-based, human; settings: in combination with retinoic acid (10 μM, differentiation); 50 μl bacteria SN
Method: SH-SY5-SY were plated in 24 wells plate at density of 60,000 cells/well and placed in the incubator. After 24 h, media were replaced with differentiation medium (growth medium containing 1% FBS) and 10 μM retinoic acid. Differentiation medium was replaced every other day and cells were used on day 10 of differentiation. For the treatment differentiation medium was removed and replaced with 450 ul of full growth media and 50 μl of bacteria SN was added to the treated wells or YCFA+ was added as negative Control.

[6] = Lipid peroxidation, thiobarbituric reactive substances assay (TBARs); settings: positive control butylated hydroxytoluene (1% w/v)
Method: Bacterial cells (10^6 or greater) were collected and centrifuged, a wash step was performed with isotonic saline before the pellet was re-suspended in potassium chloride assay buffer. The suspension was sonicated on ice for 10 minutes and then spun down at 10,000×g for 10 minutes. The supernatant was removed and the level of lipid peroxidation evaluated using the thiobarbituric reactive substances assay.

histone deacetylase = assay: Histone deacetylase activity in HT-29 cells (fluorometric kit); assay type: cell-based; settings: 10% cell free supernatant, 48 hours
Method: Cell free supernatants of stationary phase bacterial cultures were isolated by centrifugation and filtering in a 0.22 uM filter. HT-29 cells were used 3 days' post confluence and stepped down in 1 mL DTS 24 hours prior to commencement of the experiment. The HT-29 cells were challenged with 10% cell free supernatant diluted in DTS and this was left to incubate for 48 hours. […] extraction kit and samples were snap frozen prior to HDAC activity measurement. HDAC activity kit was assessed fluorometrically using the Sigma Aldrich (UK) kit.

T2 sequence (O15379 whole entry): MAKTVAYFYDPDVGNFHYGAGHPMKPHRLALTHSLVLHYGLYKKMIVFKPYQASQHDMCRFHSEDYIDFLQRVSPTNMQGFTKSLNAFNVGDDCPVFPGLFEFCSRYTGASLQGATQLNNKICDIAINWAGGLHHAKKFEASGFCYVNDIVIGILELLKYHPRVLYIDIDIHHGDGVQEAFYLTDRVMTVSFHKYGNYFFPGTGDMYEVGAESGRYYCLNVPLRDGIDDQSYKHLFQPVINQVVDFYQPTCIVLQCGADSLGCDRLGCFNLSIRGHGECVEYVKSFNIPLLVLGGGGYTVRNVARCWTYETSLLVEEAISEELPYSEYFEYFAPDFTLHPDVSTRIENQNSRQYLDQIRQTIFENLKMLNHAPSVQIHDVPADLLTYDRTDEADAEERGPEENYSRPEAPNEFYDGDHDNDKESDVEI
T2 sequence (Q9Y618 395-489 partner limits assumed): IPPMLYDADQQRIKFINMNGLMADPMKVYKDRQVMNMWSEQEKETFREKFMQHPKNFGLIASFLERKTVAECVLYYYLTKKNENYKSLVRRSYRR
T1 sequence (Q13547 whole entry): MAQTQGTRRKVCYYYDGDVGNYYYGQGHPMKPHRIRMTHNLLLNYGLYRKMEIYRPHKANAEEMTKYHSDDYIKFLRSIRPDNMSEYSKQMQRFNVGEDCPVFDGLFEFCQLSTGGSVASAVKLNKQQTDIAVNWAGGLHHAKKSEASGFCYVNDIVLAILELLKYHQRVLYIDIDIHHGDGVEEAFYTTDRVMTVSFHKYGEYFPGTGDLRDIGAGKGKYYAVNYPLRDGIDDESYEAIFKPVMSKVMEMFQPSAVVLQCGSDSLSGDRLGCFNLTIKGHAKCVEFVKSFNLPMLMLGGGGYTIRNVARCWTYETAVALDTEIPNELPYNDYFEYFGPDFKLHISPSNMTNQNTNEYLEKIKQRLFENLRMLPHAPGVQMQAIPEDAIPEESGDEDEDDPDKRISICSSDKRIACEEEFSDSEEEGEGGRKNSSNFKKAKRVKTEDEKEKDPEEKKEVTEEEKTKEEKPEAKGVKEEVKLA
T3 sequence (Q92769 whole entry): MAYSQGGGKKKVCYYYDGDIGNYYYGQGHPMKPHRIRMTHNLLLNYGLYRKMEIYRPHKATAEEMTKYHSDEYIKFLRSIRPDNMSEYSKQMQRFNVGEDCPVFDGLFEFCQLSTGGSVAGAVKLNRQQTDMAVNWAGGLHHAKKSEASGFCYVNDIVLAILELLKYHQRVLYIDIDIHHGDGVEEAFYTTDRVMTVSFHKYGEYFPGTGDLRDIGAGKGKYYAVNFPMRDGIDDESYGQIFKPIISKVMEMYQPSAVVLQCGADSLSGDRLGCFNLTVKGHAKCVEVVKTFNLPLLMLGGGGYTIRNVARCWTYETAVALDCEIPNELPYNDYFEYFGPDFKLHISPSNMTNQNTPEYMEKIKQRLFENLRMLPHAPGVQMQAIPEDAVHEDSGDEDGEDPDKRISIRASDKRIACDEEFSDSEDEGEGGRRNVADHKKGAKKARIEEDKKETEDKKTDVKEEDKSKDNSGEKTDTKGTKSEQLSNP

With Megasphaera massiliensis [MRx0029] the “α-syn-induced secretion of IL-6” value [1] was “greatest”, the antioxidant capacity [2] was “approximately 2 mM” and the 5-HIAA in brain (BALBc mice) was “slight increase”. For the same substance, the serotonin in brain (BALBc mice) was “slight increase”, the “noradrenaline levels in brain” value (BALBc mice; p=0.0507) was “increased” and the HDAC1 inhibition (HDAC1) was “very potent inhibitor”. The HDAC3 inhibition (HDAC3) was “very potent inhibitor”, the HDAC2 inhibition (HDAC2) was “very potent inhibitor” and the “Occludin mRNA expression” value [3] was “enhanced”. The “Tight Junction Protein 1 (TJP1) mRNA expression” value [3] was “enhanced”, the “Tight Junction Protein 2 (TJP2) mRNA expression” value [3] was “enhanced” and the “Vlillin mRNA expression” value [3] was “enhanced”. The “generation of ROS” value [4] was “did not have an effect”, the “Inhibition of class II HDACs” value (class II HDACs) was “not as significant” and the “secretion of BDNF” value [5] was “increases”. The “inhibition of lipid peroxidation” value [6] was “approximately 20%” and the “levels of histone deacetylase activity” value (histone deacetylase) was “reduce”.
